In experiment [1] the target is T1, SsDHAD (dihydroxyacid dehydratase from Sulfolobus solfataricus) (Saccharolobus solfataricus, UniProt Q97UB2).
T1 construct: gene ilvD; full-length synthetic gene in pET24a(+) via NdeI/XhoI, reverse primer carries stop codon (no tag); E. coli BL21(DE3); heat step 70 °C with 2-mercaptoethanol, desalted; iron-sulfur cluster
The experiment in a line: discontinuous dehydration assay, HPLC (2-keto-3-deoxygluconate). The conditions noted are these: 20 mM D-gluconate, 50 °C, 60 min. Format: biochemical.

For experiment [2], the target named is T1, SsDHAD (dihydroxyacid dehydratase from Sulfolobus solfataricus). The experiment can be described thus: discontinuous dehydration assay, pyruvate by HPLC. Format: biochemical. The conditions noted are these: supplied as D/L-glycerate 40 mM, pH 7.0, 50 °C, 60 min.

T1 sequence (Q97UB2 whole entry): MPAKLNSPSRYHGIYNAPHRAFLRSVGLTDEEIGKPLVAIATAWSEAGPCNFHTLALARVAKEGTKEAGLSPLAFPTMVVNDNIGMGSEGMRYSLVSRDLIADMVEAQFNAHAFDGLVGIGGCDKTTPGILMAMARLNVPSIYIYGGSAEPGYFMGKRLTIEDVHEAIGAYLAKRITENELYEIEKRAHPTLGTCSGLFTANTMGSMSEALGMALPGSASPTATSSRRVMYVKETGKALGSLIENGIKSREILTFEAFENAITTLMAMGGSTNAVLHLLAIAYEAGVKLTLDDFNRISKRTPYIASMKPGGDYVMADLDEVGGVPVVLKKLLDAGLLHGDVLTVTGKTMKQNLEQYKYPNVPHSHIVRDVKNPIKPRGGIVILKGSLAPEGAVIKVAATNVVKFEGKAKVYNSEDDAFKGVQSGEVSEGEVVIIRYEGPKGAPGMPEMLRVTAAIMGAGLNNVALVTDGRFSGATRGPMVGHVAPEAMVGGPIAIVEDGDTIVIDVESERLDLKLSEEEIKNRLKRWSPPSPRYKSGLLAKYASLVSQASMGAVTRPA

On to `O=C(O)[C@H](O)[C@@H](O)[C@H](O)[C@H](O)CO` [D-gluconate], for which the specific activity entry in experiment [1] is given as “we also tested the conversion of D-gluconate to 2-keto-deoxy gluconate”.
Regarding `O=C(O)[C@H](O)CO` [D-glycerate], the specific activity result in experiment [2] is “wildtype showed an activity for the dehydration of D-glycerate”.

(Values after PMC6982167, “Development of an Improved Peroxidase-Based High-Throughput Screening for the Optimization of D-Glycerate Dehydratase Activity” (International Journal of Molecular Sciences, 2020).)
